Test results reported in publication PMC8151276, “An Integrated Approach toward NanoBRET Tracers for Analysis of GPCR Ligand Engagement” (Molecules, 2021).

Assays:
Type in all cases: binding
HTR5A = molecular target: T1, HTR5A (Homo sapiens, UniProt P47898); experiment: NanoBRET screen HiBiT-HTR5A in HEK293
T1 construct: purchased Promega (in-house HiBiT-GPCR construct library, NanoBRET)
Protocol: (§1) Each tracer candidate was screened across the entire library of HiBiT-GPCR constructs using NanoBRET as the detection modality. As depicted in Figure 4A, the specificity of interactions was evaluated through decrease in BRET due to competitive displacement of a bound tracer by excess parental compound. Each tracer was analyzed for binding to each HiBiT-GPCR fusion in the absence and in the presence of competing parental compound. Briefly, HEK293 cells were transfected with HiBiT-GPCR constructs diluted into promoterless DNA to reduce expression and maximize translocation to the cell surface. Each tracer candidate was then screened at concentrations of 1 μM and 0.1 μM across cells expressing these fusions. Cells were treated for 1.5 h with tracer either alone or in the presence of 20 μM competing parental compound (i.e., control). BRET was measured upon addition of purified LgBiT and subsequent complementation with HiBiT genetically fused to a GPCR. The specificity of interactions was assessed through a decrease in BRET signal due to competitive displacement of the bound tracer. To further gauge the robustness of these interactions, the fold response over the control (i.e., BRETtracer/BRETcontrol) was calculated. We chose a 1.5-fold response, which translates to ≥7-fold signal over noise as the minimal threshold required to score an interaction as positive. […]. Below we highlight the screening results obtained for our exemplary fluorescent tracers based on Clozapine, Amitriptyline and AZD1283.
(§2) HiBiT-GPCR DNA constructs were diluted in 10 mM Tris pH 8 to a final concentration of 0.01 μg/μL, arrayed in 96-well plates and stored at −20 °C. For transfection, HEK293 cells were suspended in Opti-MEM (without phenol red) supplemented with 2% fetal bovine serum (Seradigm) and 100 units/mL penicillin–streptomycin (Gibco) at a final concentration of 220,000 cells/mL and dispensed into white 96-well plates at 90 μL/well. Subsequent transfections and screens were carried using an Agilent Bravo Automated Liquid Handling Platform. First, the 96-well HiBiT DNA arrays were diluted 25-fold in Opti-MEM (without serum or phenol red) to a final concentration of 0.0004 μg/μL and 20 μL of the diluted DNAs were transferred into new 96-well plates. Next, promoterless carrier DNA (1 μg/μL) was diluted 25-fold (0.04 μg/μL) and then dispensed into the diluted arrays at 20 μL/well. Following brief mixing, Viafect transfection reagent (Promega) diluted 16-fold into Opti-MEM was dispensed into the plates at 40 μL/well. After mixing by pipetting, plates were incubated for 10 min on the pipetting station deck. The DNA-transfection reagent complexes were then added to plates containing cells. To facilitate the screen, 10 μL of DNA-transfection reagent complexes were added in duplicates to the top 4 and bottom 4 rows, resulting in two identical 48-well arrays per plate. Plates with transfected cells were incubated for 18–20 h at 37 °C/5% CO2. A screen of each tracer across the entire library using two different concentrations requires duplicate plates of transfected cells. Depending on the number of tracers being screened, transfections can be scaled up using the same ratios. The next day, for each tracer, four 20× screening solutions in tracer dilution buffer (Promega) were prepared: two duplicates at final concentration of 20 μM and two duplicates at a final concentration of 2 μM. A competing unmodified compound was added to one of each duplicate at a final concentration of 400 μM. The four resulting solutions were diluted 4-fold in Opti-MEM without serum or phenol red to generate 5× solutions (5 µM and 0.5 µM tracer +/− 100 μM competing compound). To screen the library, a BioTek MultiFlo FX liquid dispenser was used to dispense 22.5 µL of tracer solution to the top 4 rows and 22.5 µL tracer + competing compound solution to the 4 bottom rows. Plates were briefly mixed on an orbital shaker and incubated for 1.5 h at room temperature. […]

CCR9 = molecular target: T2, CCR9 (Homo sapiens, UniProt P51686); experiment: NanoBRET screen HiBiT-CCR9 in HEK293
T2 construct: purchased Promega (in-house HiBiT-GPCR construct library, NanoBRET)
T2 sequence (P51686 1-369): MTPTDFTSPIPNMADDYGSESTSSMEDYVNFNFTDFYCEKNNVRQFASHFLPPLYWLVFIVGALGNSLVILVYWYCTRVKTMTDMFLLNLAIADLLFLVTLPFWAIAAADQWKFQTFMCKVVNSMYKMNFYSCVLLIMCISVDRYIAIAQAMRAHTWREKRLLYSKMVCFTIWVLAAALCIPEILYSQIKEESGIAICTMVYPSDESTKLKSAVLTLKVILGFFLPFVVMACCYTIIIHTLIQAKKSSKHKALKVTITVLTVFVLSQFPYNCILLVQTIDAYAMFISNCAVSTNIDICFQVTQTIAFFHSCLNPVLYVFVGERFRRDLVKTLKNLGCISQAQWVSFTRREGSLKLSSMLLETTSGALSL
Protocol: as §1, §2

GALR1 = molecular target: T3, GALR1 (Homo sapiens, UniProt P47211); experiment: NanoBRET screen HiBiT-GALR1 in HEK293
T3 construct: purchased Promega (in-house HiBiT-GPCR construct library, NanoBRET)
T3 sequence (P47211 1-349): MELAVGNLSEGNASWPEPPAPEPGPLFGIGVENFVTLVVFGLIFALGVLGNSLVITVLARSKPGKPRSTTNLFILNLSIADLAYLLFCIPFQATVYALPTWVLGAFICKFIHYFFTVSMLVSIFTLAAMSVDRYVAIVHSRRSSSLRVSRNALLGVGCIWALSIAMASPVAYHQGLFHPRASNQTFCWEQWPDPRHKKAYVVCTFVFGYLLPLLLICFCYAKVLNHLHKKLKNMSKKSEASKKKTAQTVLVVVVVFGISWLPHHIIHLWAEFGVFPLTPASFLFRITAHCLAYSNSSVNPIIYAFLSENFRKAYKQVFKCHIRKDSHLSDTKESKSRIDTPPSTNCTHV
Protocol: as §1, §2

AVPR1B = molecular target: T4, AVPR1B (Homo sapiens, UniProt P47901); experiment: NanoBRET screen HiBiT-AVPR1B in HEK293
T4 construct: purchased Promega (in-house HiBiT-GPCR construct library, NanoBRET)
T4 sequence (P47901 1-424): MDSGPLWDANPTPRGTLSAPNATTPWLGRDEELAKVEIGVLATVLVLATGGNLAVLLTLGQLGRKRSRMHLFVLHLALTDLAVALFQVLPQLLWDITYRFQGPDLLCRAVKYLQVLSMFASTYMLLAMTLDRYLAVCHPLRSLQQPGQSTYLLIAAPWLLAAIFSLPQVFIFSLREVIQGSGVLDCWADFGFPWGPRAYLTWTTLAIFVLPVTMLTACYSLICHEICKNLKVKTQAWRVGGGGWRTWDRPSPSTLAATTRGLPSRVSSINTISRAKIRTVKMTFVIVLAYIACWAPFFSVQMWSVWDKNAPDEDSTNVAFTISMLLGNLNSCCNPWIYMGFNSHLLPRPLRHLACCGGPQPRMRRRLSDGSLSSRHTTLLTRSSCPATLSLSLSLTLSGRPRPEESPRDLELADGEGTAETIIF
Protocol: as §1, §2

ADRB1 = molecular target: T5, ADRB1 (Homo sapiens, UniProt P08588); experiment: NanoBRET screen HiBiT-ADRB1 in HEK293
T5 construct: purchased Promega (in-house HiBiT-GPCR construct library, NanoBRET)
T5 sequence (P08588 whole entry): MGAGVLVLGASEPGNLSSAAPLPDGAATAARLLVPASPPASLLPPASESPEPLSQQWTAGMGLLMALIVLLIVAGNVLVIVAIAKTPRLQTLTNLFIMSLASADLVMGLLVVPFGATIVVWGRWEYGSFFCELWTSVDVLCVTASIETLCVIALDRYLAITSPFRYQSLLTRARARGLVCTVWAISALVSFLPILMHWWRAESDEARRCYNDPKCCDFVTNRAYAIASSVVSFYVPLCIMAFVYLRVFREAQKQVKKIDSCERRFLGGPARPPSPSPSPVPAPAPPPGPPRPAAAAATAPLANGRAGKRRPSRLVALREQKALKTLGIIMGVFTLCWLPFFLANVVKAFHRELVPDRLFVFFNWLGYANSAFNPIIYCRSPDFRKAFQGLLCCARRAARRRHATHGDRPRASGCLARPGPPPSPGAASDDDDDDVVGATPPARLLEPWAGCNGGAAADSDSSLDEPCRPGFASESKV

T1 sequence (P47898 whole entry): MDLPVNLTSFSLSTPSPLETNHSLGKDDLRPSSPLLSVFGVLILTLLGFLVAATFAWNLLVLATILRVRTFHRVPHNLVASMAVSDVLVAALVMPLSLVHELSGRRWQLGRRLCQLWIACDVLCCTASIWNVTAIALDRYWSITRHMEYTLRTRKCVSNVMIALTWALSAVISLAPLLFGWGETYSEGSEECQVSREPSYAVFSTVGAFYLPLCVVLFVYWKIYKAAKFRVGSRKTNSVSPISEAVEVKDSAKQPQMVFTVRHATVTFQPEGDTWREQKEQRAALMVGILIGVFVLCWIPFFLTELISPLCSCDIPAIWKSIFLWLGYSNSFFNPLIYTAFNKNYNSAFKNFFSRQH

CCOC(=O)c1cc(C#N)c(N2CCC(C(=O)NS(=O)(=O)Cc3ccccc3/C=C/C(=O)NCCNC(=O)CCc3ccc4n3[B-](F)(F)[N+]3=C(c5ccc[nH]5)C=CC3=C4)CC2)nc1C [AZD1283-1-NB590]
NanoBRET Fold Response (HTR5A; HTR5A, 0.1μM): 0.97 | NanoBRET Fold Response (HTR5A; HTR5A, 1μM): 1.04 | NanoBRET Fold Response (CCR9; CCR9, 0.1μM): 1.13 | NanoBRET Fold Response (CCR9; CCR9, 1μM): 1.10 | NanoBRET Fold Response (GALR1; GALR1, 0.1μM): 1.03 | NanoBRET Fold Response (GALR1; GALR1, 1μM): 1.09 | NanoBRET Fold Response (AVPR1B; AVPR1B, 0.1μM): 0.97 | NanoBRET Fold Response (AVPR1B; AVPR1B, 1μM): 1.05 | NanoBRET Fold Response (ADRB1; ADRB1, 0.1μM): 1.05 | NanoBRET Fold Response (ADRB1; ADRB1, 1μM): 1.09

COc1ccc2[nH]c(-c3ccc(CNC(=O)CCOCCOCCOCCOCCNC(=O)CCc4ccc5n4[B-](F)(F)[N+]4=C(c6ccc[nH]6)C=CC4=C5)cc3)c(CCNC(C)=O)c2n1 [AzomelatoninICO9-2-NB590]
NanoBRET Fold Response (HTR5A; 0.1μM tracer): 1.02 | NanoBRET Fold Response (HTR5A; 1μM tracer): 0.84 | NanoBRET Fold Response (CCR9; 0.1μM tracer): 0.97 | NanoBRET Fold Response (CCR9; 1μM tracer): 0.89 | NanoBRET Fold Response (GALR1; 0.1μM tracer): 0.87 | NanoBRET Fold Response (GALR1; 1μM tracer): 1.05 | NanoBRET Fold Response (AVPR1B; 0.1μM tracer): 1.50 | NanoBRET Fold Response (AVPR1B; 1μM tracer): 0.90 | NanoBRET Fold Response (ADRB1; 0.1μM tracer): 0.84 | NanoBRET Fold Response (ADRB1; 1μM tracer): 0.96

CC(C)N(CC[C@H](c1ccccc1)c1cc(CCNC(=O)CCOCCOCCOCCOCCNC(=O)CCc2ccc3n2[B-](F)(F)[N+]2=C(c4ccc[nH]4)C=CC2=C3)ccc1O)C(C)C [Tolterodine-2-NB590]
NanoBRET Fold Response (HTR5A; HTR5A, tracer 0.1μM): 1.07 | NanoBRET Fold Response (HTR5A; HTR5A, tracer 1μM): 1.05 | NanoBRET Fold Response (CCR9; CCR9, tracer 0.1μM): 1.12 | NanoBRET Fold Response (CCR9; CCR9, tracer 1μM): 0.95 | NanoBRET Fold Response (GALR1; GALR1, tracer 0.1μM): 1.04 | NanoBRET Fold Response (GALR1; GALR1, tracer 1μM): 0.99 | NanoBRET Fold Response (AVPR1B; AVPR1B, tracer 0.1μM): 1.42 | NanoBRET Fold Response (AVPR1B; AVPR1B, tracer 1μM): 0.97 | NanoBRET Fold Response (ADRB1; ADRB1, tracer 0.1μM): 1.09 | NanoBRET Fold Response (ADRB1; ADRB1, tracer 1μM): 0.99

CN1CCN(C2=Nc3cc(Cl)ccc3N(CC(=O)NCCOCCOCCOCCOCCNC(=O)CCc3ccc4n3[B-](F)(F)[N+]3=C(c5ccc[nH]5)C=CC3=C4)c3ccccc32)CC1 [Clozapine-c-2-NB590]
NanoBRET Fold Response (HTR5A; HTR5A, 0.1μM tracer): 1.02 | NanoBRET Fold Response (HTR5A; HTR5A, 1μM tracer): 1.00 | NanoBRET Fold Response (CCR9; CCR9, 0.1μM tracer): 1.02 | NanoBRET Fold Response (CCR9; CCR9, 1μM tracer): 0.87 | NanoBRET Fold Response (GALR1; GALR1, 0.1μM tracer): 1.02 | NanoBRET Fold Response (GALR1; GALR1, 1μM tracer): 1.03 | NanoBRET Fold Response (AVPR1B; AVPR1B, 0.1μM tracer): 0.95 | NanoBRET Fold Response (AVPR1B; AVPR1B, 1μM tracer): 0.84 | NanoBRET Fold Response (ADRB1; ADRB1, 0.1μM tracer): 1.02 | NanoBRET Fold Response (ADRB1; ADRB1, 1μM tracer): 0.94

N#CN=C(NCCCOc1cccc(CN2CCCCC2)c1)NCCNC(=O)CCOCCOCCOCCOCCNC(=O)CCc1ccc2n1[B-](F)(F)[N+]1=C(c3ccc[nH]3)C=CC1=C2 [Aminopotentidine-2-NB590]
NanoBRET Fold Response (HTR5A; HTR5A, tracer 0.1μM): 1.00 | NanoBRET Fold Response (HTR5A; HTR5A, tracer 1μM): 0.90 | NanoBRET Fold Response (CCR9; CCR9, tracer 0.1μM): 1.09 | NanoBRET Fold Response (CCR9; CCR9, tracer 1μM): 1.11 | NanoBRET Fold Response (GALR1; GALR1, tracer 0.1μM): 1.02 | NanoBRET Fold Response (GALR1; GALR1, tracer 1μM): 0.99 | NanoBRET Fold Response (AVPR1B; AVPR1B, tracer 0.1μM): 1.09 | NanoBRET Fold Response (AVPR1B; AVPR1B, tracer 1μM): 1.04 | NanoBRET Fold Response (ADRB1; ADRB1, tracer 0.1μM): 1.01 | NanoBRET Fold Response (ADRB1; ADRB1, tracer 1μM): 0.99

COc1ccc2c(n1)c(CCNC(C)=O)cn2CCNC(=O)CCc1ccc2n1[B-](F)(F)[N+]1=C(c3ccc[nH]3)C=CC1=C2 [Azamelatonin-1-NB590]
NanoBRET Fold Response (HTR5A; 0.1μM tracer): 0.89 | NanoBRET Fold Response (HTR5A; 1μM tracer): 0.89 | NanoBRET Fold Response (CCR9; 0.1μM tracer): 1.05 | NanoBRET Fold Response (CCR9; 1μM tracer): 1.04 | NanoBRET Fold Response (GALR1; 0.1μM tracer): 1.06 | NanoBRET Fold Response (GALR1; 1μM tracer): 1.00 | NanoBRET Fold Response (AVPR1B; 0.1μM tracer): 0.90 | NanoBRET Fold Response (AVPR1B; 1μM tracer): 1.00 | NanoBRET Fold Response (ADRB1; 0.1μM tracer): 0.98 | NanoBRET Fold Response (ADRB1; 1μM tracer): 0.96
